Data from patent US6531308B2, “Ketoreductase gene and protein from yeast” (Eli Lilly and Company, priority 1997, dated 2003).

System: wild-type ketoreductase from Z. rouxii (SEQ ID NO: 2)
Assay: Reductase activity of Z. rouxii ketoreductase, substrate specificity (NADPH oxidation, absorbance at 340 nm)
Format: biochemical
Protocol: Reductase activity was measured using a suitable substrate and a partially purified or substantially purified ketoreductase from Z. rouxii. Activity was measured as a function of the absorbance change at 340 nm, resulting from the oxidation of NADPH. […] Reaction mixtures were first equilibrated at 26° C. for 10 min in the absence of NADPH, and then initiated by addition of NADPH. […] The kinetic parameters for 3,4-methylenedioxyphenyl acetone were determined at an NADPH concentration of 112 μM and a 3,4-methylenedioxyphenyl acetone concentration that varied from 1.7 mM -7.2 mM. The kinetic parameters for NADPH were determined by maintaining the 3,4-methylenedioxyphenyl acetone concentration at 3 mM and the NADPH concentration was varied from 20.5 μM-236.0 μM. An extinction coefficient of 6220 M^−1 cm^−1 for NADPH absorbance at 340 nm was used to calculate the specific activity of the enzyme. For assays using isatin, the change in absorbance with time was measured at 414 nm using an extinction coefficient of 849 M^−1 cm^−1 to calculate activity. One Unit of activity corresponds to 1 μmol of NADPH consumed per minute. For assays carried out at differing pH values, 10 mM Bis-Tris and 10 mM Tris were adjusted to the appropriate pH with HCl. Kinetic parameters were determined by non-linear regression using the JMP® statistics and graphics program.

CC(=O)c1ccccc1
% Relative Activity (substrate concentration 0.6 mM): 4%

CC(=O)Cc1ccc2c(c1)OCO2 [3,4-methylenedioxyphenyl acetone]
% Relative Activity (substrate concentration 3 mM): 100%

CC(=O)CN1C(=O)c2ccccc2C1=O
% Relative Activity (substrate concentration 0.6 mM): 17%

CC1(C)[C@@H]2CC[C@@]1(C)C(=O)C2=O
% Relative Activity (substrate concentration 5 mM): 32%

CC(=O)CCc1ccc2c(c1)OCO2
% Relative Activity (substrate concentration 5 mM): 18%

O=C1Nc2ccccc2C1=O
% Relative Activity (substrate concentration 0.8 mM): 86%

CC1(C)COC(=O)C1=O
% Relative Activity (substrate concentration 3 mM): 194%

CC(C)(CO)C(=O)C(=O)O
% Relative Activity (substrate concentration 4 mM): 37%

CCOC(=O)CC(=O)CCl
% Relative Activity (substrate concentration 5 mM): 42%

CC(=O)CCc1ccccc1
% Relative Activity (substrate concentration 0.6 mM): 0%

CC1(C)[C@H]2CC[C@]1(C)C(=O)C2=O
% Relative Activity (substrate concentration 5 mM): 100%
